Measurements taken from PMC4774911, “Biochemical Screening of Five Protein Kinases from Plasmodium falciparum against 14,000 Cell-Active Compounds” (PLoS ONE, 2016).
Where “and” joins values, the source holds several entries; their conditions need not be identical. Equal values may be shown once.

Legend:
Experiment in all cases: biochemical
[1] = biological target: CDK5 (Homo sapiens, UniProt Q00535)
[2] = biological target: T1, IKBKB (Homo sapiens, UniProt O14920)
T1 sequence (O14920 1-756): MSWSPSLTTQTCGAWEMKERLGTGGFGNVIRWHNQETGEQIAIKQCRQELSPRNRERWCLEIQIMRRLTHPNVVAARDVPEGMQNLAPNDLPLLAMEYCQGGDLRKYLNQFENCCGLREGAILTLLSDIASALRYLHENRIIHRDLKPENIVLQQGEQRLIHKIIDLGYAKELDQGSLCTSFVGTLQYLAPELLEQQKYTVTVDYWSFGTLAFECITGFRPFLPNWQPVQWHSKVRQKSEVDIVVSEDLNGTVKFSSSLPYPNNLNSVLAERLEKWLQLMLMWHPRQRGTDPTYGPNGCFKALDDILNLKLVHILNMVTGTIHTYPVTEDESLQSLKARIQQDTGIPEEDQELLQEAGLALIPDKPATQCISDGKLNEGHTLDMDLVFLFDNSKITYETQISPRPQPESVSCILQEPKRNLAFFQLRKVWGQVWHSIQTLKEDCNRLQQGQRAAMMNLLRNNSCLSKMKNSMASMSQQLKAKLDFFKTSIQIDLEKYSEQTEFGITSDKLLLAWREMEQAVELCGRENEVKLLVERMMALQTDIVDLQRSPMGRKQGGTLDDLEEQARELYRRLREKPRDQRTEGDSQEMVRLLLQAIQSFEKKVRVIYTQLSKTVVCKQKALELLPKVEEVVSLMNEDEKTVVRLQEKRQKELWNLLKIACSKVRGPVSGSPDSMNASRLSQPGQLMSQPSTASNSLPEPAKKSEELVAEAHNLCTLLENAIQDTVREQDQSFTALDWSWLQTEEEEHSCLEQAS

[3] = biological target: T2, ITK (Homo sapiens, UniProt Q08881)
T2 sequence (Q08881 1-620): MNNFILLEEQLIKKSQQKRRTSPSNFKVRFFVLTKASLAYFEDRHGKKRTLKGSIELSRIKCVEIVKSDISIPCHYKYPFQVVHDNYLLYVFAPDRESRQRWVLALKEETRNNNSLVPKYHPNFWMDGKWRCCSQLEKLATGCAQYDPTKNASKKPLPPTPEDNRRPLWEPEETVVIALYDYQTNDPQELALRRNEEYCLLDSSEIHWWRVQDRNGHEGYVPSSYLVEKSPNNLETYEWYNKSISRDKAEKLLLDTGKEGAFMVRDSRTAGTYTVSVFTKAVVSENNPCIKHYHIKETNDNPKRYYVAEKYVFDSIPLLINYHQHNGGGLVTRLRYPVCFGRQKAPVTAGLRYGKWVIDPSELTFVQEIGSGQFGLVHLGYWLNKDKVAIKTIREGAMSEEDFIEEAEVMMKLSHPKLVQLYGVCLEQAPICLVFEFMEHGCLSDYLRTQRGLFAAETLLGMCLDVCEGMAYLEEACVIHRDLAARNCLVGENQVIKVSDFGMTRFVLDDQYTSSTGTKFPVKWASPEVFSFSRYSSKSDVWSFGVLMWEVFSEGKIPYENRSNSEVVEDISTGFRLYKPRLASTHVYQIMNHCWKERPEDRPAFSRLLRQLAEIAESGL

[4] = biological target: T3, MAP2K5 (Homo sapiens, UniProt Q13163)
T3 sequence (Q13163 1-448): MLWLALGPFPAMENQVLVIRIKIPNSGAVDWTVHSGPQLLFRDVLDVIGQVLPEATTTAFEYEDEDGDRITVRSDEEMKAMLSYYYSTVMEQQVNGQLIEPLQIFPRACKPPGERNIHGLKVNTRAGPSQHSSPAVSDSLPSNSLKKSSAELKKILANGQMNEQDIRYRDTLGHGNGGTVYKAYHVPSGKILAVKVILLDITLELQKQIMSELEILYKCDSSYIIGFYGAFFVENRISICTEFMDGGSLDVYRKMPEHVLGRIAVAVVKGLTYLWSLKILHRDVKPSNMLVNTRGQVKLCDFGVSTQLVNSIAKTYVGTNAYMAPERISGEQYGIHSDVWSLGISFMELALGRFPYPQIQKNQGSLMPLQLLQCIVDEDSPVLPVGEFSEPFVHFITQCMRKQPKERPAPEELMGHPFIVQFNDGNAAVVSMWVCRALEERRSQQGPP

[5] = biological target: MAPK14 (Homo sapiens, UniProt Q16539)
[6] = biological target: T4, NEK2 (Homo sapiens, UniProt P51955)
T4 sequence (P51955 1-445): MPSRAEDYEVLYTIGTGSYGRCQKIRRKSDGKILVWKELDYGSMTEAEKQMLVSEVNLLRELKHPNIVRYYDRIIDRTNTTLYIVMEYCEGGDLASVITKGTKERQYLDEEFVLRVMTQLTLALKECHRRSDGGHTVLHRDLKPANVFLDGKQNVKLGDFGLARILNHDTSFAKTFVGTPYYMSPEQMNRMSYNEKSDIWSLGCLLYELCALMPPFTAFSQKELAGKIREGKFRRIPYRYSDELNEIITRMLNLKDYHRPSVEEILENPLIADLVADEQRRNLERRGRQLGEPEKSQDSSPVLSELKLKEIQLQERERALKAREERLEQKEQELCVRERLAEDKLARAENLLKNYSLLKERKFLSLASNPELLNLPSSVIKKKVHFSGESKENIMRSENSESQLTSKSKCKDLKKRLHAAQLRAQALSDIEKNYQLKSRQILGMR

[7] = biological target: STK16 (Homo sapiens, UniProt O75716)
[8] = biological target: T5, STK17A (Homo sapiens, UniProt Q9UEE5)
T5 sequence (Q9UEE5 1-414): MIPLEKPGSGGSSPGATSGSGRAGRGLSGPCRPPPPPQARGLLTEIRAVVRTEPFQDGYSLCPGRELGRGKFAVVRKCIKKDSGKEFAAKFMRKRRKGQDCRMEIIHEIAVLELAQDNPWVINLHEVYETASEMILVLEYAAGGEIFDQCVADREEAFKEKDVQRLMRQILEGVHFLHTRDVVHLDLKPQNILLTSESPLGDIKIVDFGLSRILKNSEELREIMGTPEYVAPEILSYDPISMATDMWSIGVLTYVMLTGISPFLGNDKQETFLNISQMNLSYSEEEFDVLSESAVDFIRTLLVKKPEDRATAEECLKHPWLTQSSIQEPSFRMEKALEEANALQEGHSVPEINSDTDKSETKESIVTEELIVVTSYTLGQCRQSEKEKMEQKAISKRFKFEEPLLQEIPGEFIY

[9] = biological target: ZAK (Homo sapiens, UniProt Q9NYL2)
Chain of ZAK (Q9NYL2 whole entry): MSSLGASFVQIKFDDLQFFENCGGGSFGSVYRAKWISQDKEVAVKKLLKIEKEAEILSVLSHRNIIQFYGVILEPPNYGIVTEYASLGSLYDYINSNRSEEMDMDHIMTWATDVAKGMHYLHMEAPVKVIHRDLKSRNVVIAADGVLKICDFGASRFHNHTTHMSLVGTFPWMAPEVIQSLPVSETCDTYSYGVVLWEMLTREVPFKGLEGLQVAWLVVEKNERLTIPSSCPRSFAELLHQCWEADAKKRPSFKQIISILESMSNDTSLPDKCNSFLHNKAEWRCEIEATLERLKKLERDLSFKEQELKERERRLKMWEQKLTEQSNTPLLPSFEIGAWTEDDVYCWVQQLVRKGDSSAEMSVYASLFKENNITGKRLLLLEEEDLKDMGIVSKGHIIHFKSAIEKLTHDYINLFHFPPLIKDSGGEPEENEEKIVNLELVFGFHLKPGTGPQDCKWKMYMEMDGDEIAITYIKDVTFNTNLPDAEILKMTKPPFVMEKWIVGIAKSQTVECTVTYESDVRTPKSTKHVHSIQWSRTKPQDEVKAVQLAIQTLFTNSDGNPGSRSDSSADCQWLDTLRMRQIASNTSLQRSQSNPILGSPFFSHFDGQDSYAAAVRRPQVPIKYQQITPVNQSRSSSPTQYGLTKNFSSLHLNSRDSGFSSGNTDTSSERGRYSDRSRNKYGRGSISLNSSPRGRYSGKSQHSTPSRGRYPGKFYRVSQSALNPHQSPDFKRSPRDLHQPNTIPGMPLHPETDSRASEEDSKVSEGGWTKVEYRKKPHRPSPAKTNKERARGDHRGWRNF

Chain of MAPK14 (Q16539 whole entry): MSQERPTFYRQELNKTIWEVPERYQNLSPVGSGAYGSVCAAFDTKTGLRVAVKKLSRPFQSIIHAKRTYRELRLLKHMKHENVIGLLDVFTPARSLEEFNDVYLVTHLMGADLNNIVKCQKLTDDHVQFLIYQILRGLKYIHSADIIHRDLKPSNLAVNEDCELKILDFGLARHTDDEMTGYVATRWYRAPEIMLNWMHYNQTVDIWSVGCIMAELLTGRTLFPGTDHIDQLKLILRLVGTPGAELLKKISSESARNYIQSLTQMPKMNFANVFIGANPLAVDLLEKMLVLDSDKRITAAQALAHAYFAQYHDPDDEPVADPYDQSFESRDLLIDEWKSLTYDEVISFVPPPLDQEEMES
Chain of CDK5 (Q00535 whole entry): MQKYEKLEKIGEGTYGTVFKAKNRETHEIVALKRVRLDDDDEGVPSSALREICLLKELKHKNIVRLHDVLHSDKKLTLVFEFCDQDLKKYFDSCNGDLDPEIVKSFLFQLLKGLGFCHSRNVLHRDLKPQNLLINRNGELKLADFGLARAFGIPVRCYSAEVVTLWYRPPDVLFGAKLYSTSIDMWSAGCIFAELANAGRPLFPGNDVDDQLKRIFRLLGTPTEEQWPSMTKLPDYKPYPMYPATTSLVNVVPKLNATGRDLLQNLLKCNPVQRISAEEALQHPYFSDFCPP
Chain of STK16 (O75716 whole entry): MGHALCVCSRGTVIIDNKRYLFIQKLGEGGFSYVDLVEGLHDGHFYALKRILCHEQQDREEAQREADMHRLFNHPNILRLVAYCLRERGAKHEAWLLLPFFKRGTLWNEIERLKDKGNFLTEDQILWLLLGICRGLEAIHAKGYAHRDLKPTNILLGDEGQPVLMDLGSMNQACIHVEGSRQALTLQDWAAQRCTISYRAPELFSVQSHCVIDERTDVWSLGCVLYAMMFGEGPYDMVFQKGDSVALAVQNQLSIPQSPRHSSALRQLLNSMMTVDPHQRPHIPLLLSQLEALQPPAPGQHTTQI

| Compound | IC50 [1] | IC50 [2] [nM] | IC50 [3] [nM] | IC50 [4] | IC50 [5] [nM] | IC50 [6] | IC50 [7] | IC50 [8] [nM] | IC50 [9] |
| --- | --- | --- | --- | --- | --- | --- | --- | --- | --- |
| CN(C)CC(O)COc1ccc(Nc2ncc([N+](=O)[O-])c(Nc3ccccc3O)n2)cc1.O=C(O)C(F)(F)F (stereo not drawn) [TCMDC-141399] | > 20000 nM | > 20000 | 1700 | > 20000 nM | > 20000 | 6500 nM and 4200 nM | 1100 nM | 4200 | > 20000 nM |
| Cl.NCC1(c2nc(-c3ccc(Cl)c(O)c3)c(-c3ccncc3)[nH]2)CCCCC1 [TCMDC-141154] | > 20000 nM | > 20000 | > 20000 | 880 nM | ≤ 32 | > 20000 nM | > 20000 nM | > 20000 | 8600 nM and 5100 nM |
| CN1CCN(c2ccc(Nc3ncc(C#N)c(Nc4ccccc4C(N)=O)n3)cc2)CC1.Cl [TCMDC-134116] | 67 nM and 110 nM | > 20000 | 140 | 400 nM and 520 nM | > 20000 | 570 nM and 250 nM | 270 nM and 380 nM | 180 | 950 nM |
